The values that follow come from patent US20240374558A1, “PREPARATION OF PHENE[…] […] STEREOISOMERS THEREOF AND PRECURSORS THEREOF” (priority 2022, published 2024).

The target of data set [1] is T1, norepinephrine transporter (NET) (Rattus norvegicus, UniProt Q63380).
T1 construct: hippocampus plus overlying occipital cortex for norepinephrine transporter assays; from tissue
The data set can be described thus: Competition radioligand binding, [3H]Nisoxetine, brain synaptosome membranes. More on the design: species or system rat (Sprague Dawley). From the text: Rat brain (Sprague Dawley, 200-250 g) synaptosomes were isolated from midbrain and hindbrain for serotonin transporter assays, striatum for dopamine transporter assays, and hippocampus plus overlying occipital cortex for norepinephrine transporter assays. Radioligands used were: [^3H]Citalopram 81.4 Ci/mmol (PerkinElmer NET1039250UC; Lot No. 2960876). [3H]WIN35428 82.8 Ci/mmol (PerkinElmer NET1033250UC; Lot No. 2891473). [^3H]Nisoxetine 79.2 Ci/mmol (PerkinElmer NET1084250UC; Lot No. 2970324). Non-specific compounds used were: Citalopram (Tocris Bioscience 1427). JHW007 (Tocris Bioscience 4351). Nomifensine (Abcam abl46004). Test Compounds for the study were: racemic methylone HCl; (R)-methylone HCl; (S)-methylone HCl.
For membrane preparations, rat brains were dissected, tissue was added to ice-cold lysis buffer (50 mM Tris HCl; 5 mM MgCl2; 5 mM EDTA; protease inhibitor cocktail) and homogenized. […] A sample of the homogenate was analyzed for protein content using the MERCK® BCA assay. […]
Competition binding assays were carried out in 96-well polypropylene plates in a final volume of 250 μL per well. […] Filters were then dried under a warm air stream, sealed in polyethylene, scintillation cocktail added, and the radioactivity counted in a WALLAC® TriLux 1450 MicroBeta counter. […] Ki was subsequently calculated using the ChengPrusoff equation.

The target of data set [2] is NET (Rattus norvegicus, UniProt Q63380). Nature of the data set: NE release study. Type of data set: biochemical.
In data set [3] the test system is rat forced swim test (FST). The data set can be described thus: Rat forced swim test (FST). Type of data set: in vivo. To be noted: 10 mg/kg, IP. As to the method: The forced swim test (FST) is a classic model to assess the antidepressant-like activity of compounds that has been in use for over 40 years (Porsolt et al. (1977) Nature 266:730-732; Detke et al. (1995) Psychopharmacology 121:66-72). […] A single dose of 5 mg/kg methylone reduces immobility by approximately 50% compared to vehicle-treated controls, whereas a 15 mg/kg dose reduces immobility by nearly 100%. Accompanying changes in climbing and/or swimming behavior reflect noradrenergic and serotonergic activities of methylone, respectively.
All FST studies are performed and scored by an experimenter blind to treatment group and according to standard protocols. Briefly, rats are placed in a circular plexiglass container filled with water. Water temperature is maintained at 22-25° C. and changed for every animal. Day 1 (Training) consists of a 15 min acclimation trial, and Day 2 (Testing, 24 h later) consists of the 5 min test. A time sampling procedure is employed where animals are observed every 5 seconds for the duration of the test session (60 counts or 5 minutes) and scored for immobility (defined as the failure to struggle), swimming (defined as a circular movement around the tank), or climbing (defined as an upwards escape behavior). Data are expressed as the percent of the testing session (e.g., the number of immobility counts divided by 60). A p-value less than 0.05 indicates statistical significance after typical statistical analyses (e.g., unpaired t-test or ANOVA).
To determine that the prodrug and/or enantiomer has an antidepressant-like effect and to compare it to methylone, rats are treated with each compound 30 min prior to testing. Additional tests are run 24, 72, 168 hours post-dose or longer. Effects on Fear Extinction in a Model of Post-Traumatic Stress Disorder (PTSD)
Racemic methylone (10 mg/kg, IP) has a maximal antidepressant-like effect in the rat forced swim test (FST), reducing immobility by nearly 100% compared to vehicle treated controls. […]

For data set [4] the following is noted: self-administration, healthy volunteers; Lourdes et al. 2021; cited from earlier work.
A short description of data set [5]: Pharmacokinetics of methylone after a single IV, PO or IP administration (LC-MS/MS of plasma). Type of data set: in vivo, male Sprague Dawley rats. As to the method: The pharmacokinetic properties of methylone after a single administration intravenously (IV), intraperitoneally (IP), or by oral gavage (PO) in male Sprague Dawley rats has been determined using a liquid chromatography tandem mass spectrometry (LC-MS/MS) method that has been established and validated for methylone in the rat. Rats (n=3 per group) received a single dose of methylone: 5 mg/kg IV, 15 mg/kg IP, or 15 mg/kg PO.
To investigate whether the prodrug extends the half-life or alters other basic pharmacokinetic properties of methylone (e.g., Cmax or Tmax), rats are treated with each prodrug IV, IP, or PO. For each compound, three groups of rats are treated as follows: For group 1, a single dose of methylone is administered to 3 male Sprague-Dawley rats by IV bolus at 5 mg/kg. For group 2, a single dose of methylone is administered to 3 male Sprague-Dawley rats by oral gavage (PO) at 15 mg/kg. For group 3, a single dose of methylone is administered to 3 male Sprague-Dawley rats by IP at 15 mg/kg. For all groups, blood samples are collected from each animal at 0.083, 0.25, 0.5, 1, 2, 4, 8, 12, and 24 hours post-dose for the determination of plasma concentrations. The plasma concentrations are quantified by liquid chromatography tandem mass spectrometry (LC-MS/MS). The bioanalytical assay has been established and validated, providing a lower limit of quantification (LLOQ) of 1 ng/mL and an upper limit of quantification (ULOQ) of 3000 ng/mL for methylone. The plasma concentration-time data are analyzed using Phoenix WinNonlin (version 8.3) to characterize the PK properties of the analyte. The non-compartmental analysis model and the linear/log trapezoidal method are applied to calculating the PK parameters.

Data set [6] relates to mouse model of PTSD. Nature of the data set: Fear extinction in a mouse model of PTSD. Type of data set: in vivo. To be noted: 30 mg/kg, IP. As to the method: FIGS. 1A-1D: Methylone improves fear extinction recall in a mouse model of PTSD. (FIG. 1A) Schematic of experimental design. A single CS-US (tone-shock) pairing on day 1 was followed by 6 CS presentations in a novel context (context B). Methylone or saline vehicle was injected 30 min prior to extinction training on day 2. On day 3, the time spent freezing to the CS was quantified. […] (FIG. 1C) The time freezing before vs. during each of 6 cues on day 3 (to control for locomotor effects) are shown. There was a significant cue x drug interaction (F(5,130)=2.409, p<0.05). […] N=12 for methylone group (30 mg/kg, IP, orange diamonds) and N=16 for saline control group (black squares). *p<0.05
Effective PTSD treatments facilitate the disassociation between a traumatic memory and the patient's fear response, making cues for the traumatic memory evoke less of a fear response. This is modeled in the mouse fear extinction paradigm which takes place over 3 days. On day 1 (fear conditioning), mice are trained to acquire a “traumatic memory,” namely associating the conditioned stimulus (CS, tone) to the unconditioned stimulus (US, foot shock). On day 2 (extinction training), they are trained to forget the traumatic memory association by presenting the CS 6 times (with no US) in a novel environment. On day 3 (extinction recall), the mice are “asked” if that tone (CS) still elicits a fearful response, as measured by the time spent freezing when the tone is presented. Less time freezing means better extinction recall. Drugs that improve extinction recall reduce freezing time on day 3, and, therefore, show potential as a PTSD treatment.
Using these methods, prodrugs and/or enantiomers are administered to mice and tested for efficacy in the fear extinction model to evaluate their efficacy to treat PTSD and other memory disorders. Anxiolytic Effects in Other Behavioral Anxiety Models

Data set [7] has as its system open field test (OFT). The data set can be described thus: Open field test (OFT). The conditions noted are these: rat, in vivo. Set-up: species or system rats. As to the method:
Additional behavioral testing including the elevated plus maze (EPM) and thigmotaxis in the open field test (OFT) are used to assess the anxiolytic effects of methylone and its prodrugs in mice or rats. […] These models are described in greater detail below. Prodrugs are screened in these behaviors to the anxiolytic efficacy of each compound.
Compounds are screened for their effects on both parameters. Briefly, rodents are assessed in a 30 minute OFT using an automated activity monitoring system. Rodents are acclimated to the room 30 minutes before the start of testing. The following parameters are captured: Horizontal distance travelled, overall ambulatory time, and ambulatory counts. Vertical activity (time and counts), Time in the Center vs. Periphery data are reported in 5-minute bins as well as total time.

The test system of data set [8] is PTSD symptoms. To be noted: clinical case series of 21 individuals; cited from earlier work.
Data set [9] deals with open field test (OFT). To be noted: 5, 10, 20 mg/kg, SC, rats; Stefkovi et al. 2017; cited from earlier work.
Data set [10] in a line: XRPD analysis of pre- and post-DVS samples (form stability). The format is physicochemical. To be noted: after DVS 5-95-5% RH. The protocol:
Two lots of methylone HCl samples were submitted to evaluate the stability of the solid forms under various humidity conditions. Dynamic vapor sorption (DVS) analysis was performed to evaluate the kinetic hygroscopicity and assess if variable humidity XRPD would be necessary, as well as to determine the appropriate humidity condition(s) for such XRPD analysis. Both pre- and post-DVS samples were analyzed by conventional XRPD for solid form confirmation or any potential form changes.
Each sample was prepared in a silicon low background holder using light manual pressure to keep the sample surface flat and level with the reference surface of the sample holder. The single crystal Si low background holder has a circular recess (10 mm diameter and about 0.2 mm depth) that holds the sample. The Rigaku Smart-Lab diffraction system used was configured for Bragg-Brentano reflection geometry using a line source X-ray beam. The Bragg-Brentano geometry was controlled by passive divergence and receiving slits with the sample itself acting as the focusing component for the optics.

Where two headings read alike, the source gives them in different places.

T1 sequence (Q63380 1-617): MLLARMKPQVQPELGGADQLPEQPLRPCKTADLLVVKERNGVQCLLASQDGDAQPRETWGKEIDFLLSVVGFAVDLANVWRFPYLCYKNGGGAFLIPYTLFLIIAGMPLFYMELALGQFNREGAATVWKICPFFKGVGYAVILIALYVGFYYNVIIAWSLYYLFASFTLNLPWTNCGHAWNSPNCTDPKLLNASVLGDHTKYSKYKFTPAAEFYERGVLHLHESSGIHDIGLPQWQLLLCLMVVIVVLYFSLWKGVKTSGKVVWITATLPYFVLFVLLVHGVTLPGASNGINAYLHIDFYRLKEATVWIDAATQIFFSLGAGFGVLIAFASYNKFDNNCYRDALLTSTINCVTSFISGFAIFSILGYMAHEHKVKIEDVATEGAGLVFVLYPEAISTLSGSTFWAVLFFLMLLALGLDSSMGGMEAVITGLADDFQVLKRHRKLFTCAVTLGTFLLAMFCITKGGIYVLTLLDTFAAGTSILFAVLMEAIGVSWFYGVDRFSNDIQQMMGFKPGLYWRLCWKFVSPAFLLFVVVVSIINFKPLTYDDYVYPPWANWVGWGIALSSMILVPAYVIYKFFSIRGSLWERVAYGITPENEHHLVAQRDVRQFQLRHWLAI
Sequence of NET (Q63380 1-617): as above

In data set [1], `CNC(C)C(=O)c1ccc2c(c1)OCO2` (racemic) [Racemic methylone, methylone] had an IC50 of 3100 nM and a Ki of 1460 nM. In data set [2], it took 330 nM to reach a half-maximal effect (EC50). Moreover, the “reduction of immobility compared to vehicle treated controls” value in [3] was around 100%.

Consider `CNC(C)Cc1ccc2c(c1)OCO2` (centres unmarked) [MDMA, 3,4-methylenedioxymethamphetamine, reference compound], for which, in data set [4], the “systolic and diastolic blood pressure” value is given as “significant increase”.

In data set [5] (Group 1 (IV), 5 mg/kg), `CNC(C)C(=O)c1ccc2c(c1)OCO2` (centres unmarked) [Methylone, methylone] had an AUC0-last of 1200 ± 88.2 ng·h/mL, a C0 of 3018 ± 666 ng/mL, a Cl of 68.3 ± 5.40 mL/min/kg and an MRT0-last of 0.439 ± 0.026 h. For the same compound, the Vdss in data set [5] (Group 1 (IV), 5 mg/kg) amounted to 1.98 ± 0.230 L/kg. For the same compound, in data set [5] (Group 2 (PO), 15 mg/kg), the AUC0-last was determined as 2765 ± 657 ng·h/mL, the MRT0-last was 2.99 ± 0.467 h, the T1/2 worked out at 3.23 ± 1.99 h and the time to peak (Tmax) is reported as 1.33 ± 0.577 h. The same compound had a maximum concentration (Cmax) in [5] (Group 2 (PO), 15 mg/kg, plasma) of 678 ± 243 ng/mL. In data set [5] (Group 3 (IP), 15 mg/kg), this compound yielded an AUC0-last of 4305 ± 1179 ng·h/mL and an MRT0-last of 1.07 ± 0.211 h. Moreover, in data set [5] (Group 3 (IP), 15 mg/kg, plasma), the Cmax is listed as 4230 ± 514 ng/mL. In data set [5] (male, Sprague Dawley, rat, plasma, Group 3 (IP), 15 mg/kg, read-out: Tmax), the time of peak concentration (Tmax) amounted to 0.25 h. Also, in data set [6], the “fear extinction recall (freezing time during the first cue on day 3) vs saline” value is listed as “significantly improves fear extinction recall” and the “locomotor changes on day 3” value was “No locomotor changes”. Moreover, in [6] (listed as methylone), the “fear extinction recall (freezing time during the first cue on day 3) vs saline” value is listed as “significantly reduced”. Moreover, in [7], the “locomotor activity in the OFT” value is “increases locomotor activity” and the “time in the center vs the periphery in the OFT” value is reported as “reduces time spent in the center vs the periphery”. The “patients with improved PTSD symptoms” value in [8] is 81%. In addition, the “thigmotaxis (time spent hugging the perimeter of the open field)” value in data set [9] is listed as “reduce thigmotaxis”. For the same compound, in [4], the heart rate entry is on record as “increase in heart rate”; the “systolic and diastolic blood pressure” value is listed as “significant increase”.

For the compound `CNC(C)C(=O)c1ccc2c(c1)OCO2.Cl` [lot KRR-R&D-2022-II-58, methylone HCl], the “form changes, post-DVS vs pre-DVS XRPD pattern” value in [10] is given as “No form changes”.
